{"source": "paper PMC7751758", "about": "“Repurposing Sigma-1 Receptor Ligands for COVID-19 Therapy?” (Frontiers in Pharmacology, 2020)", "origin": "cited, not measured here", "key": {"EBOV [1]": {"test_system": "EBOV"}, "Sigma-1 receptor": {"molecular_target": "Sigma-1 receptor", "conditions": "for pIC50: read-out: Sigma-1 receptor affinity IC50"}, "EBOV [2]": {"test_system": "EBOV", "conditions": "mouse, in vivo"}, "HCoV-229E": {"test_system": "HCoV-229E", "conditions": "replication in cell culture"}, "EBV": {"test_system": "EBV", "conditions": "infection of B lymphocytes"}, "CHIKV": {"test_system": "CHIKV", "conditions": "cytopathic effect induced by Chikungunya virus and other alphaviruses (Semliki Forest virus and Sindbis virus)"}, "HCV infection": {"test_system": "HCV infection", "conditions": "without significantly reducing cell biomass; ref Mingorance et al., 2014"}, "[3]": {"test_system": "HCV infection of human hepatocarcinoma Huh-7 cells", "conditions": "absence of cytotoxicity at low micromolar and submicromolar concentrations; ref Gastaminza et al., 2010"}, "[4]": {"test_system": "HCV-induced cytopathic effect on the engineered cell line n4mBid", "conditions": "leads of the cell protection screen; ref Chockalingam et al., 2010"}, "[5]": {"test_system": "SARS-CoV-2 in Huh-7 cells", "conditions": "devoid of cytotoxicity, ref Mirabelli et al., 2020"}}, "note": "pIC50, pKi: −log10 of the molar value. “Also recorded” adds a separate entry of the source. Where two headings read alike, the source gives them in different places.", "data": [{"smiles": "CC(C)COCC(CN(Cc1ccccc1)c1ccccc1)N1CCCC1", "note": "(stereo not drawn) [Bepridil]", "values": [{"measurement": "Antiviral activity: Virus", "setting": "EBOV [1]", "value": "active"}, {"measurement": "pIC50", "setting": "Sigma-1 receptor", "value": 6.44}, {"measurement": "protection in a murine EBOV infection model", "setting": "EBOV [2]", "value": "protective ability"}]}, {"smiles": "CN(C)CCCN1c2ccccc2Sc2ccc(Cl)cc21", "note": "[Chlorpromazine]", "values": [{"measurement": "Antiviral activity: Virus", "setting": "HCoV-229E; ref de Wilde et al., 2014, listed as chlorpromazine", "value": "inhibited the replication"}, {"measurement": "Antiviral activity: Virus", "setting": "MERS-CoV", "value": "in vitro activity"}, {"measurement": "pKi", "setting": "Sigma-1 receptor; read-out: Sigma-1 receptor affinity Ki", "value": 6.84}, {"measurement": "Antiviral activity: Virus", "setting": "EBV; ref Nemerow and Cooper, 1984, listed as chlorpromazine", "value": "inhibit infection of B lymphocytes"}, {"measurement": "Antiviral activity: Virus", "setting": "SARS-CoV", "value": "inhibited the replication; also recorded: in vitro activity; also recorded: SARS-CoVSARS-CoV-2"}, {"measurement": "Antiviral activity: Virus", "setting": "CHIKV; ref Pohjala et al., 2011, listed as chlorpromazine", "value": "inhibition of the cytopathic effect"}, {"measurement": "reduction of HCV infection", "setting": "HCV infection", "value": "more than one order of magnitude"}]}, {"smiles": "CN(C)CCC=C1c2ccccc2COc2ccccc21", "note": "[Doxepin]", "values": [{"measurement": "reduction in HCV infection of Huh-7 cells, as compared to the vehicle DMSO control", "setting": "[3]", "value": "> 85", "unit": "%"}, {"measurement": "Antiviral activity: Virus", "setting": "CHIKV; ref Pohjala et al., 2011, listed as doxepin", "value": "inhibition of the cytopathic effect"}]}, {"smiles": "O=C(CCCN1CCC(O)(c2ccc(Cl)cc2)CC1)c1ccc(F)cc1", "note": "[Haloperidol]", "values": [{"measurement": "reduction in HCV infection of Huh-7 cells, as compared to the vehicle DMSO control", "setting": "[3]", "value": "> 85", "unit": "%"}, {"measurement": "Antiviral activity: Virus", "setting": "EBV; ref Nemerow and Cooper, 1984, listed as haloperidol", "value": "inhibit infection of B lymphocytes"}]}, {"smiles": "CN(C)C(=O)C(CCN1CCC(O)(c2ccc(Cl)cc2)CC1)(c1ccccc1)c1ccccc1", "note": "[Loperamide]", "values": [{"measurement": "Antiviral activity: Virus", "setting": "HCoV-229E; ref de Wilde et al., 2014, listed as loperamide", "value": "inhibited the replication"}, {"measurement": "Antiviral activity: Virus", "setting": "SARS-CoV", "value": "inhibited the replication"}]}, {"smiles": "CN1CCC(CN2c3ccccc3Sc3ccccc32)C1", "note": "(stereo not drawn) [Methdilazine]", "values": [{"measurement": "pIC50", "setting": "Sigma-1 receptor", "value": 6.78}, {"measurement": "Antiviral activity: Virus", "setting": "CHIKV; ref Pohjala et al., 2011, listed as methdilazine", "value": "inhibition of the cytopathic effect"}]}, {"smiles": "OCCN1CCN(CCCN2c3ccccc3Sc3ccc(Cl)cc32)CC1", "note": "[Perphenazine]", "values": [{"measurement": "alleviation of HCV-induced cytopathic effect (n4mBid cell viability relative to untreated cells)", "setting": "[4]", "value": "increase n4mBid cell viability"}, {"measurement": "Antiviral activity: Virus", "setting": "CHIKV; ref Pohjala et al., 2011, listed as perphenazine", "value": "inhibition of the cytopathic effect"}, {"measurement": "reduction of HCV infection", "setting": "HCV infection", "value": "more than one order of magnitude"}]}, {"smiles": "CN1CCN(CCCN2c3ccccc3Sc3ccc(Cl)cc32)CC1", "note": "[Prochlorperazine]", "values": [{"measurement": "reduction in HCV infection of Huh-7 cells, as compared to the vehicle DMSO control", "setting": "[3]", "value": "> 85", "unit": "%"}, {"measurement": "Antiviral activity: Virus", "setting": "EBOV [1]", "value": "active"}, {"measurement": "Antiviral activity: Virus", "setting": "EBV; ref Nemerow and Cooper, 1984", "value": "inhibit infection of B lymphocytes"}, {"measurement": "cellular toxicity", "setting": "Ebola virus (EBOV)", "value": "< 30", "unit": "%"}, {"measurement": "viral inhibition", "setting": "Ebola virus (EBOV)", "value": "> 50", "unit": "%"}]}, {"smiles": "CC(CN1c2ccccc2Sc2ccccc21)N(C)C", "note": "(stereo not drawn) [Promethazine]", "values": [{"measurement": "Antiviral activity: Virus", "setting": "MERS-CoV", "value": "in vitro activity"}, {"measurement": "pIC50", "setting": "Sigma-1 receptor", "value": 6.07}, {"measurement": "Antiviral activity: Virus", "setting": "EBV; ref Nemerow and Cooper, 1984, listed as promethazine", "value": "inhibit infection of B lymphocytes"}, {"measurement": "Antiviral activity: Virus", "setting": "SARS-CoV", "value": "in vitro activity; also recorded: SARS-CoV SARS-CoV-2"}]}, {"smiles": "CN[C@H]1CC[C@@H](c2ccc(Cl)c(Cl)c2)c2ccccc21", "note": "[Sertraline]", "values": [{"measurement": "Antiviral activity: Virus", "setting": "EBOV [1]", "value": "active"}, {"measurement": "protection in a murine EBOV infection model", "setting": "EBOV [2]", "value": "protective ability"}]}, {"smiles": "CCSc1ccc2c(c1)N(CCCN1CCN(C)CC1)c1ccccc1S2", "note": "[Thiethylperazine]", "values": [{"measurement": "Antiviral activity: Virus", "setting": "MERS-CoV", "value": "in vitro activity"}, {"measurement": "pIC50", "setting": "Sigma-1 receptor", "value": 6.28}, {"measurement": "Antiviral activity: Virus", "setting": "SARS-CoV", "value": "in vitro activity; also recorded: SARS-CoV SARS-CoV-2"}, {"measurement": "Antiviral activity: Virus", "setting": "CHIKV; ref Pohjala et al., 2011, listed as thiethylperazine", "value": "inhibition of the cytopathic effect"}]}, {"smiles": "CSc1ccc2c(c1)N(CCC1CCCCN1C)c1ccccc1S2", "note": "(stereo not drawn) [Thioridazine]", "values": [{"measurement": "Antiviral activity: Virus", "setting": "EBOV [1]", "value": "active"}, {"measurement": "Antiviral activity: Virus", "setting": "CHIKV; ref Pohjala et al., 2011, listed as thioridazine", "value": "inhibition of the cytopathic effect"}]}, {"smiles": "CN1CCN(CCCN2c3ccccc3Sc3ccc(C(F)(F)F)cc32)CC1", "note": "[Trifluoperazine]", "values": [{"measurement": "alleviation of HCV-induced cytopathic effect (n4mBid cell viability relative to untreated cells)", "setting": "[4]", "value": "increase n4mBid cell viability"}, {"measurement": "reduction in HCV infection of Huh-7 cells, as compared to the vehicle DMSO control", "setting": "[3]", "value": "> 85", "unit": "%"}, {"measurement": "Antiviral activity: Virus", "setting": "EBV; ref Nemerow and Cooper, 1984, listed as trifluoperazine", "value": "inhibit infection of B lymphocytes"}]}, {"smiles": "COc1ccc(CCN(C)CCCC(C#N)(c2ccc(OC)c(OC)c2)C(C)C)cc1OC", "note": "(stereo not drawn) [Verapamil]", "values": [{"measurement": "antiviral potency", "setting": "[5]", "value": "below 1 µM"}, {"measurement": "pIC50", "setting": "Sigma-1 receptor", "value": "[…]"}]}, {"smiles": "Cc1cccc(C)c1OCC(=O)N[C@@H](Cc1ccccc1)[C@@H](O)C[C@H](Cc1ccccc1)NC(=O)[C@H](C(C)C)N1CCCNC1=O", "note": "[lopinavir]", "values": [{"measurement": "Antiviral activity: Virus", "setting": "HCoV-229E; ref de Wilde et al., 2014", "value": "inhibited the replication"}, {"measurement": "Antiviral activity: Virus", "setting": "SARS-CoV", "value": "inhibited the replication"}]}]}
